{"source": "patent US9133204B2", "about": "“5-membered heterocyclic amides and related compounds” (H. Lundbeck A/S, priority 2007, dated 2015)"}
{"biological_target": "T1, P2X7 receptor (Homo sapiens, UniProt Q99572)", "T1 construct": "host or cells: SH-SY5Y", "T1 sequence (Q99572 1-595)": "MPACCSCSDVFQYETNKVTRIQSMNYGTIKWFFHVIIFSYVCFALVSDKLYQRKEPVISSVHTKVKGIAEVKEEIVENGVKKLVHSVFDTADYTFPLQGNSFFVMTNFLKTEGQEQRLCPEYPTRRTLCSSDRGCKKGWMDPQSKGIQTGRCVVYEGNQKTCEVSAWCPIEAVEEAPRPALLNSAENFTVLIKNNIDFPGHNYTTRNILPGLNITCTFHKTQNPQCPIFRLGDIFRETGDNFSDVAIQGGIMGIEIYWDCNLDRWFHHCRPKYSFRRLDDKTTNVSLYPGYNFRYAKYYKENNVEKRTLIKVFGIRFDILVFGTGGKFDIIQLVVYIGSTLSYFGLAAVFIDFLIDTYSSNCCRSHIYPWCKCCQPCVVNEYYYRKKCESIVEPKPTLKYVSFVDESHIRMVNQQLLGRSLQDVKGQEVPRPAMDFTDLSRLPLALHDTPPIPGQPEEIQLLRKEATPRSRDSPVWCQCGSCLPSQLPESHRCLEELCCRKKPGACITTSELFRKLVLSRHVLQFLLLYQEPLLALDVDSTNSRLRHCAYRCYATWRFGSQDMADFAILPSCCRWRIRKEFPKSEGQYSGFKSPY", "assay": "High throughput P2X7 calcium mobilization assay (Example 4A)", "assay_type": "cell-based", "settings": "SH-SY5Y cells; 50% decrease in fluorescence response of cells exposed to 80 μM BzATP; Table I", "protocol": "(§1) A. High Throughput Assay of P2X7 Receptors\n(§2) SH-SY5Y cells, ATCC Number CRL-2266, (American Type Culture Collection, Manassas, Va.) are cultured under DMEM/High medium supplemented with 10% FBS, and 10 mM HEPES (Invitrogen Corp., Carlsbad, Calif.) in 5% CO2 and at 37° C. One day prior to the experiment, cells are plated at a density of 100,000 cells/well in a 96 well black/clear TC plate (Corning® Costar®, Sigma-Aldrich Co., St. Louis, Mo.). At the beginning of the experiment, the culture medium is removed and cells are incubated with 50 μL of 2.3 μM Fluo-4 AM dye (Invitrogen Corp.) in the assay solution (5 mM KCl, 9.6 mM NaH2PO4.H2O, 25 mM HEPES, 280 mM sucrose, 5 mM glucose, and 0.5 mM CaCl2; pH is adjusted to 7.4 with NaOH) for an hour at 37° C. After one hour dye incubation, wells are rinsed once with 50 μL assay solution, and are then incubated for an hour at room temperature with 100 μL assay solution containing the test compound. The final concentration of test compound generally ranges from 1 to 2500 nM; for positive control cells, no test compound is added. After the one hour incubation, plates are transferred to a FLIPR^TETRA instrument (Molecular Devices, Sunnyvale, Calif.) for calcium mobilization analysis.\n(§3) For determination of antagonist activity, 50 μL, of P2X7 agonist (2′(3)-O-(4-benzoyl-benzoyl)adenosine 5′-triphosephate (BzATP; Sigma-Aldrich) in the assay solution is transferred using the FLIPR into the plate, such that the final agonist concentration is 80 μM (about EC50). In negative control cells, 50 μL of assay solution without agonist is added at this stage. The peak fluorescence signal over a 2 minute period is then measured.\n(§4) First, the average maximum relative fluorescent unit (RFU) response from the negative control wells (no agonist) is subtracted from the maximum response detected for each of the other experimental wells. Second, average maximum RFU response is calculated for the positive control wells (agonist wells).", "units": {"IC50": "µM"}}
{"compound": "COc1nccnc1-n1cc(C(=O)NCC23CC4CC(CC(C4)C2)C3)c(C)n1", "note": "[Compound 42, N-(adamantan-1-ylmethyl)-1-(3-methoxypyrazin-2-yl)-3-methyl-1H-pyrazole-4-carboxamide]", "IC50": "≤ 2"}
{"compound": "Cc1nn(-c2cncc(N)n2)cc1C(=O)NCC12CC3CC(CC(C3)C1)C2", "note": "[Compound 43, N-(adamantan-1-ylmethyl)-1-(6-aminopyrazin-2-yl)-3-methyl-1H-pyrazole-4-carboxamide]", "IC50": "≤ 2"}
{"compound": "Cc1cnc(-n2cc(C(=O)NCC34CC5CC(CC(C5)C3)C4)c(C)n2)nc1N", "note": "[Compound 45, N-(adamantan-1-ylmethyl)-1-(4-amino-5-methylpyrimidin-2-yl)-3-methyl-1H-pyrazole-4-carboxamide]", "IC50": "≤ 2"}
{"compound": "Cc1cc(C(=O)NCC23CC4CC(CC(C4)C2)C3)n(C)n1", "note": "[Compound 46, N-(adamantan-1-ylmethyl)-1,3-dimethyl-1H-pyrazole-5-carboxamide]", "IC50": "≤ 2"}
{"compound": "COC(=O)c1cc(C(=O)NCC23CC4CC(CC(C4)C2)C3)n(C(C)C)n1", "note": "[Compound 47, methyl 5-[(adamantan-1-ylmethyl)carbamoyl]-1-isopropyl-1H-pyrazole-3-carboxylate]", "IC50": "≤ 2"}
{"compound": "CCn1nc(C)c(Br)c1C(=O)NCC(CC(C)C)c1ccccc1", "note": "(centres unmarked) [Compound 49, 4-bromo-1-ethyl-3-methyl-N-(4-methyl-2-phenylpentyl)-1H-pyrazole-5-carboxamide]", "IC50": "≤ 2"}
{"compound": "CCn1nc(C)c(Br)c1C(=O)NCC(c1ccccc1)c1ccccc1", "note": "[Compound 50, 4-bromo-N-(2,2-diphenylethyl)-1-ethyl-3-methyl-1H-pyrazole-5-carboxamide]", "IC50": "≤ 2"}
{"compound": "CC(C)n1nc(CN2CCCC(N)C2)cc1C(=O)NCC12CC3CC(CC(C3)C1)C2", "note": "(centres unmarked) [Compound 55, N-(adamantan-1-ylmethyl)-3-[(3-aminopiperidin-1-yl)methyl]-1-isopropyl-1H-pyrazole-5-carboxamide]", "IC50": "≤ 2"}
{"compound": "Cc1cnc(-n2cc(C(=O)NCC34CC5CC(CC(C5)C3)C4)c(C)n2)nc1NCCO", "note": "[Compound 56, N-(adamantan-1-ylmethyl)-1-{4-[(2-hydroxyethyl)amino]-5-methylpyrimidin-2-yl}-3-methyl-1H-pyrazole-4-carboxamide]", "IC50": "≤ 2"}
{"compound": "Cc1nn(-c2nccnc2N)cc1C(=O)NCC12CC3CC(CC(C3)C1)C2", "note": "[Compound 58, N-(adamantan-1-ylmethyl)-1-(3-aminopyrazin-2-yl)-3-methyl-1H-pyrazole-4-carboxamide]", "IC50": "≤ 2"}
{"compound": "Cc1nn(-c2cccc(N)n2)cc1C(=O)NCC12CC3CC(CC(C3)C1)C2", "note": "[Compound 59, N-(adamantan-1-ylmethyl)-1-(6-aminopyridin-2-yl)-3-methyl-1H-pyrazole-4-carboxamide]", "IC50": "≤ 2"}
{"compound": "Cc1nn(-c2cnc(N)cn2)cc1C(=O)NCC12CC3CC(CC(C3)C1)C2", "note": "[Compound 61, N-(adamantan-1-ylmethyl)-1-(5-aminopyrazin-2-yl)-3-methyl-1H-pyrazole-4-carboxamide]", "IC50": "≤ 2"}
{"compound": "Cc1nn(C)c(C(=O)NCC23CC4CC(CC(C4)C2)C3)c1Br", "note": "[Compound 62, N-(adamantan-1-ylmethyl)-4-bromo-1,3-dimethyl-1H-pyrazole-5-carboxamide]", "IC50": "≤ 2"}
{"compound": "CCn1nc(C)c(Br)c1C(=O)NCC12CC3CC(CC(C3)C1)C2", "note": "[Compound 63, N-(adamantan-1-ylmethyl)-4-bromo-1-ethyl-3-methyl-1H-pyrazole-5-carboxamide]", "IC50": "≤ 2"}
{"compound": "Cc1cc(-n2cc(C(=O)NCC34CC5CC(CC(C5)C3)C4)c(C)n2)nc(N)n1", "note": "[Compound 64, N-(adamantan-1-ylmethyl)-1-(2-amino-6-methylpyrimidin-4-yl)-3-methyl-1H-pyrazole-4-carboxamide]", "IC50": "≤ 2"}
{"compound": "O=C(NCC12CC3CC(CC(C3)C1)C2)c1sc(-c2ccccc2C(F)(F)F)nc1Cl", "note": "[Compound 65, N-(adamantan-1-ylmethyl)-4-chloro-2-[2-(trifluoromethyl)phenyl]-1,3-thiazole-5-carboxamide]", "IC50": "≤ 2"}
{"compound": "O=C(NCC12CC3CC(CC(C3)C1)C2)c1cnc(-c2ccccc2C(F)(F)F)s1", "note": "[Compound 67, N-(adamantan-1-ylmethyl)-2-[2-(trifluoromethyl)phenyl]-1,3-thiazole-5-carboxamide]", "IC50": "≤ 2"}
{"compound": "Cc1nc(Sc2nccn2C)c(C(=O)NCC23CC4CC(CC(C4)C2)C3)s1", "note": "[Compound 69, N-(adamantan-1-ylmethyl)-2-methyl-4-[(1-methyl-1H-imidazol-2-yl)thio]-1,3-thiazole-5-carboxamide]", "IC50": "≤ 2"}
{"compound": "Cc1nc(OC2CCNCC2)sc1C(=O)NCC12CC3CC(CC(C3)C1)C2", "note": "[Compound 70, N-(adamantan-1-ylmethyl)-4-methyl-2-(piperidin-4-yloxy)-1,3-thiazole-5-carboxamide]", "IC50": "≤ 2"}
{"compound": "Cc1nc(N2CCNCC2)sc1C(=O)NCC12CC3CC(CC(C3)C1)C2", "note": "[Compound 72, N-(adamantan-1-ylmethyl)-4-methyl-2-piperazin-1-yl-1,3-thiazole-5-carboxamide]", "IC50": "≤ 2"}
{"compound": "Cc1ccsc1C(=O)NCC12CC3CC(CC(C3)C1)C2", "note": "[Compound 73, N-(1-adamantylmethyl)-3-methylthiophene-2-carboxamide]", "IC50": "≤ 2"}
{"compound": "CSc1ccc(C(=O)NCC23CC4CC(CC(C4)C2)C3)s1", "note": "[Compound 75, N-(1-adamantylmethyl)-5-(methylthio)thiophene-2-carboxamide]", "IC50": "≤ 2"}
{"compound": "O=C(NCC12CC3CC(CC(C3)C1)C2)c1ccc(Br)s1", "note": "[Compound 76, N-(1-adamantylmethyl)-5-bromothiophene-2-carboxamide]", "IC50": "≤ 2"}
{"biological_target": "T1, P2X7 receptor", "assay": "High throughput P2X7 calcium mobilization assay (Example 4A)", "assay_type": "cell-based", "settings": "SH-SY5Y cells; 50% decrease in fluorescence response of cells exposed to 80 μM BzATP; flag after the MS data in Examples 1-2", "protocol": "as §1, §2, §3, §4", "units": {"IC50": "µM"}}
{"compound": "Cc1nc(-c2cccnc2)sc1C(=O)NCC1(c2ccc(C(F)(F)F)cc2)CCCCC1", "note": "[Compound 32, N-({1-[4-(trifluoromethyl)phenyl]cyclohexyl}methyl)-4-methyl-2-pyridin-3-yl-1-,3-thiazole-5-carboxamide]", "IC50": "≤ 2"}
{"compound": "Cc1ccc(C(CNC(=O)c2sc(-c3cccnc3)nc2C)CC(C)C)cc1", "note": "(centres unmarked) [Compound 33, N-[4-methyl-2-(4-methylphenyl)pentyl}-4-methyl-2-pyridin-3-yl-1,3-thiazole-5-carboxamide]", "IC50": "≤ 2"}
{"compound": "Cc1nc(-c2cccnc2)sc1C(=O)NCC1(c2ccc(F)cc2)CCCCC1", "note": "[Compound 34]", "IC50": "≤ 2"}
{"compound": "CCCC(CNC(=O)c1sc(-c2cccnc2)nc1C)c1ccc(Cl)cc1", "note": "(centres unmarked) [Compound 35, N-[2-(4-chlorophenyl)pentyl}-4-methyl-2-pyridin-3-yl-1,3-thiazole-5-carboxamide]", "IC50": "≤ 2"}
{"compound": "COc1ccc(C2(CNC(=O)c3sc(-c4cccnc4)nc3C)CCCCC2)cc1", "note": "[Compound 36, N-{[1-(4-methoxyphenyl)cyclohexyl]methyl}-4-methyl-2-pyridin-3-yl-1,3-thiazole-5-carboxamide]", "IC50": "≤ 2"}
{"compound": "Cc1nc(-c2cccnc2)sc1C(=O)NCC1(c2ccc(Cl)cc2)CCOCC1", "note": "[Compound 37, N-{[4-(4-Chlorophenyl)tetrahydro-2H-pyran-4-yl]methyl}-4-methyl-2-pyridin-3-yl-1,3-thiazole-5-carboxamide]", "IC50": "≤ 2"}
{"compound": "Cc1ccc(C2(CNC(=O)c3sc(-c4cccnc4)nc3C)CCCCC2)cc1", "note": "[Compound 38, N-{[1-(4-methylphenyl)cyclohexyl]methyl}-4-methyl-2-pyridin-3-yl-1,3-thiazole-5-carboxamide]", "IC50": "≤ 2"}
{"compound": "Cc1nc(-c2cccnc2)sc1C(=O)NCC1(c2ccc(Cl)c(F)c2)CCCCC1", "note": "[Compound 39, N-{[1-(4-chloro-3-fluorophenyl)cyclohexyl]methyl}-4-methyl-2-pyridin-3-yl-1-,3-thiazole-5-carboxamide]", "IC50": "≤ 2"}
{"compound": "Cc1ccc(C2(CNC(=O)c3sc(-c4cccnc4)nc3C)CCCCC2)cn1", "note": "[Compound 40, N-{[1-(6-methylpyridin-3-yl)cyclohexyl]methyl}-4-methyl-2-pyridin-3-yl-1-,3-thiazole-5-carboxamide]", "IC50": "≤ 2"}
